Results published in patent US20230295197A1, “STAT5 and STAT6 Degraders and Uses Thereof” (REGENTS OF THE UNIVERSITY OF MICHICAN, priority 2022, published 2023).
Read-outs that look alike come from different tables or passages of the source.

Assays:
STAT5 = test: Immunoblotting (Western blot) analysis of STAT5 degradation efficiency of degraders in treated cells; assay type: cell-based
Summary of the method: (§1)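 Degradation read by quantitative near-infrared Western blot: equal protein loads (20-40 μg) from compound-treated versus untreated cells, probed overnight at 4° C. for STAT5 or STAT6 with GAPDH reference. Compound concentrations and exposure times as indicated; cells grown in medium with 10% FBS at 37° C.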

STAT6 = biological target: T1, STAT6 (Homo sapiens, UniProt P42226); test: Immunoblotting (Western blot) analysis of STAT6 degradation efficiency of degraders in treated cells; assay type: cell-based; conditions: MOLM-16 cells, read-out: DC50 S6 MOLM-16
T1 construct: endogenous in cells; host or cells: MOLM-16, KU-812, SKNO1, MB231, L1236
T1 sequence (P42226 1-847): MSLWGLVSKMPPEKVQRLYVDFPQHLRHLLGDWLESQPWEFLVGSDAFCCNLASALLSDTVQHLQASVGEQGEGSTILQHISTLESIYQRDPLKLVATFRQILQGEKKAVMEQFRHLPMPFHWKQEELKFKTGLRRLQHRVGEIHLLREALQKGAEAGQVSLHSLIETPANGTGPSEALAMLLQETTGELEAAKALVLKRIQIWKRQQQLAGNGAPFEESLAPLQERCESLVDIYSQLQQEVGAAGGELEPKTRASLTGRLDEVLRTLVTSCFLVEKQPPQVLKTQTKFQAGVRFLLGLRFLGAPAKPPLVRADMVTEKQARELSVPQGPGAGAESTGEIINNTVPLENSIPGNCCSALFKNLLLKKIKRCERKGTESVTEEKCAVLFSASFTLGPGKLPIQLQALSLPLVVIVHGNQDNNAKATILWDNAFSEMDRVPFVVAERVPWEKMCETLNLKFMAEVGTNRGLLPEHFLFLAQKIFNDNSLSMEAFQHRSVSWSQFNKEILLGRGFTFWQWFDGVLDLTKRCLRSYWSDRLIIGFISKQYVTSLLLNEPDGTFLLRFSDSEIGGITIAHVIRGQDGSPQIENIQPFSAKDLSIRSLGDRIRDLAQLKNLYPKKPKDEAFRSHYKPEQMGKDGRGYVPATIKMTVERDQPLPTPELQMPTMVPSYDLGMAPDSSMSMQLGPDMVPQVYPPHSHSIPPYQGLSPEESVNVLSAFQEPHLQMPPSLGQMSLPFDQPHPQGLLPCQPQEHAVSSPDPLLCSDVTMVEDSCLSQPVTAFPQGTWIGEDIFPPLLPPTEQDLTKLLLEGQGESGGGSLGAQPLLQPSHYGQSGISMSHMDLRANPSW
Summary of the method: as §1

[1] = MOLM-16 cells, numeric bound, read-out: DC50 S5 MOLM-16
[2] = KU-812 cells, read-out: DC50 S5 KU-812
[3] = SKNO1 cells, read-out: DC50 S5 SKNO1

Compound	DC50 (STAT5; [1])	DC50 (STAT5; [3])	also measured
Cc1ncsc1-c1ccc([C@H](CC(=O)NCCOCCOCCOCCC(=O)N[C@@H]2C[C@@H](C(=O)Nc3ncc(-c4ccccc4)s3)N(C(=O)[C@@H](NC(=O)c3cc4cc(C(F)(F)P(=O)(O)O)ccc4s3)C(C)(C)C)C2)NC(=O)[C@@H]2C[C@@H](O)CN2C(=O)[C@@H](NC(=O)C2(F)CC2)C(C)(C)C)cc1 [Compound 582, (difluoro(2-(((S)-1-((2S,4R)-4-((S)-1-((2S,4R)-1-((S)-2-(1-fluorocyclopropane-1-carboxamido)-3,3-dimethylbutanoyl)-4-hydroxypyrrolidin-2-yl)-3-(4-(4-methylthiazol-5-yl)phenyl)-1,5-dioxo-9,12,15-trioxa-2,6-diazaoctadecan-18-amido)-2-((5-phenylthiazol-2-yl)carbamoyl)pyrrolidin-1-yl)-3,3-dimethyl-1-oxobutan-2-yl)carbamoyl)benzo[b]thiophen-5-yl)methyl)phosphonic acid]	> 300 nM		DC50 (STAT6; numeric bound): > 300 nM
CC(C)(C)[C@H](NC(=O)c1cc2cc(C(F)(F)P(=O)(O)O)ccc2s1)C(=O)N1CCC[C@H]1C(=O)N(CCC(=O)NCCC#Cc1cccc2c1CN(C1CCC(=O)NC1=O)C2=O)c1ccc(Br)cc1 (stereo partly drawn) [Compound 614, ((2-(((2S)-1-((2S)-2-((4-bromophenyl)(3-((4-(2-(2,6-dioxopiperidin-3-yl)-1-oxoisoindolin-4-yl)but-3-yn-1-yl)amino)-3-oxopropyl)carbamoyl)pyrrolidin-1-yl)-3,3-dimethyl-1-oxobutan-2-yl)carbamoyl)benzo[b]thiophen-5-yl)difluoromethyl)phosphonic acid]	> 300 nM	> 10000 nM	DC50 (STAT5; [2]): > 10000 nM; DC50 (STAT6; class symbols): > 10000 nM
CC(C)(C)[C@H](NC(=O)c1cc2cc(C(F)(F)P(=O)(O)O)ccc2s1)C(=O)N1CCC[C@H]1C(=O)N1Cc2ccccc2CC1C(=O)NCCCC#Cc1cccc2c1CN(C1CCC(=O)NC1=O)C2=O (stereo partly drawn) [Compound 657, ((2-(((2S)-1-((2S)-2-(3-((5-(2-(2,6-dioxopiperidin-3-yl)-1-oxoisoindolin-4-yl)pent-4-yn-1-yl)carbamoyl)-1,2,3,4-tetrahydroisoquinoline-2-carbonyl)pyrrolidin-1-yl)-3,3-dimethyl-1-oxobutan-2-yl)carbamoyl)benzo[b]thiophen-5-yl)difluoromethyl)phosphonic acid]	> 300 nM		DC50 (STAT6; numeric bound): > 300 nM
Cc1ncsc1-c1ccc([C@H](CC(=O)NCCOCCOCCC(=O)N[C@@H]2C[C@@H](C(=O)Nc3ncc(-c4ccccc4)s3)N(C(=O)[C@@H](NC(=O)c3cc4cc(C(F)(F)P(=O)(O)O)ccc4s3)C(C)(C)C)C2)NC(=O)[C@@H]2C[C@@H](O)CN2C(=O)[C@@H](NC(=O)C2(F)CC2)C(C)(C)C)cc1 [Compound 581, (difluoro(2-(((S)-1-((2S,4R)-4-((S)-1-((2S,4R)-1-((S)-2-(1-fluorocyclopropane-1-carboxamido)-3,3-dimethylbutanoyl)-4-hydroxypyrrolidin-2-yl)-3-(4-(4-methylthiazol-5-yl)phenyl)-1,5-dioxo-9,12-dioxa-2,6-diazapentadecan-15-amido)-2-((5-phenylthiazol-2-yl)carbamoyl)pyrrolidin-1-yl)-3,3-dimethyl-1-oxobutan-2-yl)carbamoyl)benzo[b]thiophen-5-yl)methyl)phosphonic acid]	> 300 nM		DC50 (STAT6; numeric bound): > 300 nM
CC(C)(C)[C@H](NC(=O)c1cc2cc(C(F)(F)P(=O)(O)O)ccc2s1)C(=O)N1C[C@@H](OCCCCCC#Cc2cccc3c2CN(C2CCC(=O)NC2=O)C3=O)C[C@H]1C(=O)N1CCO[C@H](c2ccccc2)C1 (stereo partly drawn) [Compound 593, ((2-(((2S)-1-((2S,4S)-4-((7-(2-(2,6-dioxopiperidin-3-yl)-1-oxoisoindolin-4-yl)hept-6-yn-1-yl)oxy)-2-((R)-2-phenylmorpholine-4-carbonyl)pyrrolidin-1-yl)-3,3-dimethyl-1-oxobutan-2-yl)carbamoyl)benzo[b]thiophen-5-yl)difluoromethyl)phosphonic acid]			DC50 (STAT5; MOLM-16 cells, class symbols, read-out: DC50 S5 MOLM-16): > 10000 nM; DC50 (STAT6; class symbols): < 100 nM
CC(C)(C)[C@H](NC(=O)c1cc2cc(C(F)(F)P(=O)(O)O)ccc2s1)C(=O)N1CCC[C@H]1C(=O)N(CCC(=O)N1CCC(C#Cc2cccc3c2CN(C2CCC(=O)NC2=O)C3=O)CC1)c1ccc(Br)cc1 (stereo partly drawn) [Compound 613, ((2-(((2S)-1-((2S)-2-((4-bromophenyl)(3-(4-((2-(2,6-dioxopiperidin-3-yl)-1-oxoisoindolin-4-yl)ethynyl)piperidin-1-yl)-3-oxopropyl)carbamoyl)pyrrolidin-1-yl)-3,3-dimethyl-1-oxobutan-2-yl)carbamoyl)benzo[b]thiophen-5-yl)difluoromethyl)phosphonic acid]	> 300 nM	> 10000 nM	DC50 (STAT5; [2]): > 10000 nM
CC(C)(C)[C@H](NC(=O)c1cc2cc(C(F)(F)P(=O)(O)O)ccc2s1)C(=O)N1C[C@H](OCc2ccccc2)C[C@H]1C(=O)N(CCC(=O)N1CCC(C#Cc2cccc3c2CN(C2CCC(=O)NC2=O)C3=O)CC1)c1ccc(Br)cc1 (stereo partly drawn) [Compound 621, ((2-(((2S)-1-((2S,4R)-4-(benzyloxy)-2-((4-bromophenyl)(3-(4-((2-(2,6-dioxopiperidin-3-yl)-1-oxoisoindolin-4-yl)ethynyl)piperidin-1-yl)-3-oxopropyl)carbamoyl)pyrrolidin-1-yl)-3,3-dimethyl-1-oxobutan-2-yl)carbamoyl)benzo[b]thiophen-5-yl)difluoromethyl)phosphonic acid]	> 300 nM		
CCN1CC[C@H]2CC[C@@H](C(=O)N(CCC(=O)N3CCC(C#Cc4cccc5c4CN(C4CCC(=O)NC4=O)C5=O)CC3)c3ccc(Br)cc3)N2C(=O)[C@@H](NC(=O)c2cc3cc(C(F)(F)P(=O)(O)O)ccc3s2)C1 (stereo partly drawn) [Compound 630, ((2-(((5S,8S,10aR)-8-((4-bromophenyl)(3-(4-((2-(2,6-dioxopiperidin-3-yl)-1-oxoisoindolin-4-yl)ethynyl)piperidin-1-yl)-3-oxopropyl)carbamoyl)-3-ethyl-6-oxodecahydropyrrolo[1,2-a][1,5]diazocin-5-yl)carbamoyl)benzo[b]thiophen-5-yl)difluoromethyl)phosphonic acid]	> 300 nM		
CC(C)(C)[C@H](NC(=O)c1cc2cc(C(F)(F)P(=O)(O)O)ccc2s1)C(=O)N1C[C@H](OCc2ccccc2)C[C@H]1C(=O)N(CCC(=O)NCC#Cc1cccc2c1CN(C1CCC(=O)NC1=O)C2=O)c1ccc(Br)cc1 (stereo partly drawn) [Compound 616, ((2-(((2S)-1-((2S,4R)-4-(benzyloxy)-2-((4-bromophenyl)(3-((3-(2-(2,6-dioxopiperidin-3-yl)-1-oxoisoindolin-4-yl)prop-2-yn-1-yl)amino)-3-oxopropyl)carbamoyl)pyrrolidin-1-yl)-3,3-dimethyl-1-oxobutan-2-yl)carbamoyl)benzo[b]thiophen-5-yl)difluoromethyl)phosphonic acid]	> 300 nM		
CC(C)(C)[C@H](NC(=O)c1cc2cc(C(F)(F)P(=O)(O)O)ccc2s1)C(=O)N1CCC[C@H]1C(=O)N(CCC(=O)NCCCC#Cc1cccc2c1CN(C1CCC(=O)NC1=O)C2=O)c1ccc(C#N)cc1 (stereo partly drawn) [Compound 642, ((2-(((2S)-1-((2S)-2-((4-cyanophenyl)(3-((5-(2-(2,6-dioxopiperidin-3-yl)-1-oxoisoindolin-4-yl)pent-4-yn-1-yl)amino)-3-oxopropyl)carbamoyl)pyrrolidin-1-yl)-3,3-dimethyl-1-oxobutan-2-yl)carbamoyl)benzo[b]thiophen-5-yl)difluoromethyl)phosphonic acid]	> 300 nM	> 10000 nM	
CC(C)(C)[C@H](NC(=O)c1cc2cc(C(F)(F)P(=O)(O)O)ccc2s1)C(=O)N1CCC[C@H]1C(=O)N(CCC(=O)NCCCC#Cc1cccc2c1CN(C1CCC(=O)NC1=O)C2=O)c1cccc(-c2ccccc2)c1 (stereo partly drawn) [Compound 649, ((2-(((2S)-1-((2S)-2-([1,1′-biphenyl]-3-yl(3-((5-(2-(2,6-dioxopiperidin-3-yl)-1-oxoisoindolin-4-yl)pent-4-yn-1-yl)amino)-3-oxopropyl)carbamoyl)pyrrolidin-1-yl)-3,3-dimethyl-1-oxobutan-2-yl)carbamoyl)benzo[b]thiophen-5-yl)difluoromethyl)phosphonic acid]	> 300 nM	1000 to 10000 nM	
